Results from the NIST ThermoML archive (doi:10.1016/j.jct.2016.11.009).

Assay: xn = mol fraction of the nth substance listed
Details: Fluid (supercritical or subcritical phases), Buoyancy - hydrostatic balance with magnetic suspension - one sinker

C [methane] + O=C=O
Details	mass density [kg/m3]
299.61 K, 4220 kPa, x2 = 0.6015	65.102
299.93 K, 5997 kPa, x2 = 0.3997	77.827
299.94 K, 6004 kPa, x2 = 0.6015	100.404
299.95 K, 9002 kPa, x2 = 0.2017	95.03
299.95 K, 15006 kPa, x2 = 0.8988	723.669
299.96 K, 5002 kPa, x2 = 0.6015	79.746
299.96 K, 7003 kPa, x2 = 0.3997	93.846
299.96 K, 7999 kPa, x2 = 0.2017	82.733
299.96 K, 8008 kPa, x2 = 0.8988	302.149
299.96 K, 12001 kPa, x2 = 0.3997	186.929
299.97 K, 5996 kPa, x2 = 0.7985	129.225
299.97 K, 6997 kPa, x2 = 0.2017	70.838
299.97 K, 8000 kPa, x2 = 0.3997	110.726
299.97 K, 10986 kPa, x2 = 0.8988	631.428
299.97 K, 13852 kPa, x2 = 0.0998	130.843
299.98 K, 2118 kPa, x2 = 0.0998	16.647
299.98 K, 4383 kPa, x2 = 0.0998	35.981
299.98 K, 7000 kPa, x2 = 0.6015	123.126
299.98 K, 7004 kPa, x2 = 0.8988	203.104
299.98 K, 8002 kPa, x2 = 0.6015	148.65
299.98 K, 8997 kPa, x2 = 0.3997	128.548
299.98 K, 8997 kPa, x2 = 0.8988	483.358
299.98 K, 9722 kPa, x2 = 0.0998	87.624
299.98 K, 10003 kPa, x2 = 0.7985	353.847
299.98 K, 10997 kPa, x2 = 0.7985	428.638
299.99 K, 4000 kPa, x2 = 0.2017	37.902
299.99 K, 4003 kPa, x2 = 0.3997	48.763
299.99 K, 4192 kPa, x2 = 0.0998	34.275
299.99 K, 4997 kPa, x2 = 0.7985	99.658
299.99 K, 6002 kPa, x2 = 0.2017	59.46
299.99 K, 10005 kPa, x2 = 0.2017	107.622
299.99 K, 12000 kPa, x2 = 0.2017	133.357
299.99 K, 12004 kPa, x2 = 0.6015	275.504
299.99 K, 12017 kPa, x2 = 0.8988	664.349
299.99 K, 14986 kPa, x2 = 0.0998	142.483
299.99 K, 18001 kPa, x2 = 0.2017	207.683
300 K, 3662 kPa, x2 = 0.2017	34.438
300 K, 6399 kPa, x2 = 0.0998	54.523
300 K, 7624 kPa, x2 = 0.0998	66.394
300 K, 8000 kPa, x2 = 0.7985	212.092
300 K, 10995 kPa, x2 = 0.3997	166.796
300 K, 14999 kPa, x2 = 0.2017	171.971
300 K, 17997 kPa, x2 = 0.6015	433.882
300.01 K, 5001 kPa, x2 = 0.2017	48.462
300.01 K, 8998 kPa, x2 = 0.7985	274.617
300.01 K, 9002 kPa, x2 = 0.6015	176.866
300.01 K, 11000 kPa, x2 = 0.2017	120.384
300.02 K, 2964 kPa, x2 = 0.0998	23.652
300.02 K, 3999 kPa, x2 = 0.7985	74.633
300.02 K, 6996 kPa, x2 = 0.7985	165.378
300.02 K, 9996 kPa, x2 = 0.6015	207.768
300.02 K, 10011 kPa, x2 = 0.8988	582.856
300.02 K, 15007 kPa, x2 = 0.3997	246.022
300.02 K, 18000 kPa, x2 = 0.0998	171.73
300.03 K, 5996 kPa, x2 = 0.8988	149.398
300.03 K, 10998 kPa, x2 = 0.6015	241.279
300.03 K, 11790 kPa, x2 = 0.0998	109.201
300.03 K, 17999 kPa, x2 = 0.8988	760.577
300.04 K, 5006 kPa, x2 = 0.8988	112.111
300.04 K, 6260 kPa, x2 = 0.0998	53.19
300.04 K, 12001 kPa, x2 = 0.7985	485.736
300.04 K, 14998 kPa, x2 = 0.6015	367.75
300.05 K, 18002 kPa, x2 = 0.3997	297.591
300.06 K, 5002 kPa, x2 = 0.3997	62.85
300.06 K, 17999 kPa, x2 = 0.7985	637.414
300.07 K, 9277 kPa, x2 = 0.0998	82.984
300.07 K, 14999 kPa, x2 = 0.7985	584.129
300.07 K, 16598 kPa, x2 = 0.0998	158.42
300.1 K, 4310 kPa, x2 = 0.8988	90.757
300.21 K, 10004 kPa, x2 = 0.3997	147.143
303.07 K, 10005 kPa, x2 = 0.8988	522.742
303.07 K, 11007 kPa, x2 = 0.8988	588.449
303.1 K, 11000 kPa, x2 = 0.6015	229.981
303.1 K, 12003 kPa, x2 = 0.0998	109.095
303.1 K, 18071 kPa, x2 = 0.7985	621.015
303.11 K, 4004 kPa, x2 = 0.8988	80.364
303.11 K, 9000 kPa, x2 = 0.0998	78.724
303.11 K, 9001 kPa, x2 = 0.7985	254.341
303.11 K, 17996 kPa, x2 = 0.2017	202.897
303.11 K, 18001 kPa, x2 = 0.0998	167.945
303.12 K, 3001 kPa, x2 = 0.0998	23.673
303.12 K, 10001 kPa, x2 = 0.7985	320.908
303.12 K, 11000 kPa, x2 = 0.0998	98.851
303.13 K, 3999 kPa, x2 = 0.2017	37.359
303.13 K, 4999 kPa, x2 = 0.3997	61.796
303.13 K, 6004 kPa, x2 = 0.7985	125.434
303.13 K, 6999 kPa, x2 = 0.2017	69.612
303.13 K, 11860 kPa, x2 = 0.7985	444.556
303.13 K, 11999 kPa, x2 = 0.2017	130.323
303.14 K, 3995 kPa, x2 = 0.6015	59.469
303.14 K, 7004 kPa, x2 = 0.6015	119.411
303.14 K, 8002 kPa, x2 = 0.0998	68.892
303.14 K, 17999 kPa, x2 = 0.6015	420.157
303.15 K, 5000 kPa, x2 = 0.0998	40.895
303.15 K, 8006 kPa, x2 = 0.6015	143.46
303.15 K, 9999 kPa, x2 = 0.6015	198.747
303.15 K, 10004 kPa, x2 = 0.0998	88.738
303.15 K, 11003 kPa, x2 = 0.7985	391.279
303.15 K, 12001 kPa, x2 = 0.3997	181.298
303.15 K, 14998 kPa, x2 = 0.7985	561.073
303.16 K, 4000 kPa, x2 = 0.7985	73.078
303.16 K, 4001 kPa, x2 = 0.3997	48.004
303.16 K, 5009 kPa, x2 = 0.6015	77.914
303.16 K, 6006 kPa, x2 = 0.0998	50.034
303.16 K, 7994 kPa, x2 = 0.7985	200.301
303.16 K, 8000 kPa, x2 = 0.3997	108.241
303.16 K, 8016 kPa, x2 = 0.8988	253.316
303.16 K, 8992 kPa, x2 = 0.8988	374.284
303.16 K, 8999 kPa, x2 = 0.6015	169.77
303.17 K, 4998 kPa, x2 = 0.2017	47.685
303.17 K, 5005 kPa, x2 = 0.8988	108.149
303.17 K, 6001 kPa, x2 = 0.2017	58.474
303.17 K, 9001 kPa, x2 = 0.2017	93.089
303.17 K, 14997 kPa, x2 = 0.0998	139.317
303.17 K, 18000 kPa, x2 = 0.8988	742.988
303.18 K, 4002 kPa, x2 = 0.0998	32.139
303.18 K, 5999 kPa, x2 = 0.3997	76.379
303.18 K, 6996 kPa, x2 = 0.3997	91.801
303.18 K, 7001 kPa, x2 = 0.8988	186.521
303.18 K, 7999 kPa, x2 = 0.2017	81.148
303.19 K, 7000 kPa, x2 = 0.0998	59.247
303.19 K, 12002 kPa, x2 = 0.6015	261.85
303.19 K, 15005 kPa, x2 = 0.2017	167.871
303.2 K, 5001 kPa, x2 = 0.7985	97.235
303.2 K, 8999 kPa, x2 = 0.3997	125.402
303.2 K, 10993 kPa, x2 = 0.3997	162.067
303.2 K, 10996 kPa, x2 = 0.2017	117.65
303.21 K, 7002 kPa, x2 = 0.7985	158.82
303.21 K, 9999 kPa, x2 = 0.3997	143.458
303.21 K, 15000 kPa, x2 = 0.8988	701.018
303.21 K, 17999 kPa, x2 = 0.3997	288.435
303.22 K, 9998 kPa, x2 = 0.2017	105.223
303.22 K, 15003 kPa, x2 = 0.6015	352.168
303.23 K, 6005 kPa, x2 = 0.6015	97.567
303.26 K, 6002 kPa, x2 = 0.8988	141.868
